pIC50: −log10 of the molar value. Where two headings read alike, the source gives them in different places. Marks after values point to notes of the source that are not given here.
Legend:
diabetic mice [1] = assay: Oral glucose tolerance test (OGTT) after multiple doses (6 days) in diabetic mice; type: in vivo; settings: for AUC % change from diabetic control / AUC Δ from diabetic control / Relative potency to vildagliptin / AUC of blood glucose in OGTT (X, mean): 50 mg/kg oral for 6 days; for Relative potency to vildagliptin: OGTT AUC; for AUC of blood glucose in OGTT (X, mean): glucose load 2 g/kg 2 h after 6th dose, AUC 0-120 min; for R.P. to Vildagliptin (6 Days): Table 6, relative potency, B.G. = blood glucose
Method: (§1) The Biochemical and Research Ethical Committee of King Abulaziz University (Jeddah, Saudi Arabia), in accordance with the NIH guidelines, approved all procedures, and the animals received human care during the experimental period. Experiments were carried out using adult male Swiss albino mice (SWR), of 8-9 weeks age and 30-35 g weight. Animals were purchased from the animal house of the King Fahed Medical Research center (KFMRC), Jeddah, Saudi Arabia. Mice were kept at a constant temperature of 24-25° C. and were subjected to a controlled 12 h light-dark cycle; they had free access to water and pelleted diet ad libitum.
(§2) Nicotinamide (210 mg/kg b.w.), dissolved in saline, was injected intraperitoneally 15 min before the intraperitoneal injection of Streptozotocin (STZ) (Sigma, 180 mg/kg b.w.), which was freshly prepared in citrate buffer (pH 4.5). Control animals received both vehicles. During the experimental period, animals' food intake and body weight gain were monitored once a week.
(§3) On the same groups that received the single dose treatment, the tested compounds were given daily by oral gavage for six consecutive days. On day 6, the overnight fasted diabetic mice were pretreated with the 6th oral dose of the tested compounds. Two hours later, an oral glucose was loaded (2 g/kg/10 ml b.w.). Blood glucose levels were determined using the Accu-check Go®. Samples were collected just before drug administration (Fasting Blood glucose), then 2 h after drug treatment and before glucose administration. Samples collection was continued at 20, 40, 60 and 120 min intervals after glucose loading.

diabetic mice [2] = assay: Fasting blood glucose of diabetic mice treated daily for 6 consecutive days; type: in vivo; settings: 50 mg/kg oral daily
Method: as §1, §2, §3
The oral glucose tolerance test (OGTT) was performed over six days on diabetic mice. The glucose level was monitored daily (Table 3). The results were analyzed for activities after a single dose (Table 4) and after the 6th dose of the drug (Table 5).

DPP-IV enzyme = biological target: T1, DPP-IV enzyme (Homo sapiens, UniProt P27487); assay: In vitro DPP-IV inhibition assay (Biovision kit, fluorescence); type: biochemical; settings: for DPP-4 enzyme inhibition activity, in words: SAR discussion; for IC50: Table 2, head prints no unit, nM per Table 6
T1 construct: purchased Biovision (Milpitas, Calif., USA)
Method: DPP-IV inhibition assay was conducted using a kit purchased from Biovision (Milpitas, Calif., USA). Briefly, DPP-IV enzyme was diluted with Tris buffer and pipetted 50 μl into glass mini-cells. […] Finally a volume of 25 μl of DPP-IV substrate was added into each tube. The fluorescence generated from hydrolysis of the substrate was read at Ex/Em=360/460 nm using Modulus® single tube multimode reader (Promega, USA). Baseline fluorescence was recorded before incubation (R1) and 20 min after incubation (R2).
The standard DPP-IV inhibitor drug sitagliptin employed as positive control. […] Sigmoidal concentration-response curves for DPP-IV % inhibition versus log concentration were plotted using Graphpad prism software, version 5.00 (GraphPad Software, Inc. La Jolla, Calif., USA).

diabetic mice [3] = assay: Oral glucose tolerance test (OGTT) after single dose in diabetic mice; type: in vivo; settings: for R.P. to Vildagliptin (Single Dose): Table 6, relative potency, B.G. = blood glucose; for AUC of blood glucose in OGTT (X, mean): glucose load 2 g/kg 2 h later, AUC 0-120 min
Method: as §1, §2
Oral glucose tolerance tests were performed in 14 h overnight fasted diabetic mice that were pretreated with a single oral dose of the tested compounds. […] The drugs were suspended in carboxymethyl cellulose (CMC)-Na (1% in distilled water) and the dosing volume was adjusted at 10 mL/kg body weight of the mouse. Then an oral glucose load was administered (2 g/kg) 2 h after drug treatment. Blood glucose levels were determined using the Accu-check Go® (Roche Diagnostics, Michigan, USA). Samples were collected just before drug administration (fasting blood glucose), then at 2 h after drug treatment (immediately before glucose loading). Then blood sample collection was continued at 20, 40, 60 and 120 min intervals after glucose loading.
Animals were distributed between three categories of groups. Each group is composed of six animals (n=6) […] as follows:
Category 1: One group of animals were 14 h overnight-fasted normoglycemic mice and vehicle-treated (1% CMC-Na) at a dose of 10 ml/kg.
Category 2: Another group of animals was overnight fasted diabetic mice received the vehicle (1% CMC-Na) at a dosing volume of 10 ml/kg and served as a negative control.
Category 4: Animals of these groups were overnight fasted diabetic mice received the tested compounds at a dose of 50 mg/kg in 1% CMC (volume of 10 ml/kg).

[4] = read-out: enzymatic inhibition value / inhibitory activity (IC50)

T1 sequence (P27487 whole entry, species assumed): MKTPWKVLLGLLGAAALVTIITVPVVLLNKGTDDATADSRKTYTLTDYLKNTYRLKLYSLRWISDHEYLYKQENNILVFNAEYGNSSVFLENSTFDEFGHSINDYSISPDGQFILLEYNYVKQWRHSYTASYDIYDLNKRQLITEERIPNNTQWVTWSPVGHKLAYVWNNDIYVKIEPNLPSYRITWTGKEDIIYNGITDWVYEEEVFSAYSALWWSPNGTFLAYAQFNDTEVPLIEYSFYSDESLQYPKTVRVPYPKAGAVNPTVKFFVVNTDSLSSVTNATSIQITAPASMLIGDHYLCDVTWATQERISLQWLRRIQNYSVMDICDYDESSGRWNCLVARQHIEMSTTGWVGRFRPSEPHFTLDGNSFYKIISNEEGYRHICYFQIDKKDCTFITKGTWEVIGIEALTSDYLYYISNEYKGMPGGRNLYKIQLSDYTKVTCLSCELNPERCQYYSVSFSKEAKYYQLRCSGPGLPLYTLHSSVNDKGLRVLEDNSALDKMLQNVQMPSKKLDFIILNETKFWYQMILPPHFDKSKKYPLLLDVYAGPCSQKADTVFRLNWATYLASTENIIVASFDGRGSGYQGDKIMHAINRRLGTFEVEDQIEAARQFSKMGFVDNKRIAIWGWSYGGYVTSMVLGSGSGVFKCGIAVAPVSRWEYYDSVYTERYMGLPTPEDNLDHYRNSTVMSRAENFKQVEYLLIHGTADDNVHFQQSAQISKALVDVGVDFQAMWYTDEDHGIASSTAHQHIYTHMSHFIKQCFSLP

DPP-4 enzyme inhibition activity, in words (DPP-IV enzyme) | IC50 (DPP-IV enzyme; read-out: IC50) [nM] | pIC50 (DPP-IV enzyme; Table 6, read-out: IC50) | % Inhibition @ 100 nM (DPP-IV enzyme; compound at 100 nM) [%] | pIC50 (DPP-IV enzyme; [4]) | Structure (SMILES) | AUC % change from diabetic control (diabetic mice [1]) [%] | AUC Δ from diabetic control (diabetic mice [1]) [mg·min/dL] | Relative potency to vildagliptin (diabetic mice [1]) | AUC of blood glucose in OGTT (X, mean) (diabetic mice [1]) | R.P. to Vildagliptin (6 Days) (diabetic mice [1]) | Fasting blood glucose level, Day 1 (diabetic mice [2]) | Fasting blood glucose level, Day 2 (diabetic mice [2]) | Fasting blood glucose level, Day 3 (diabetic mice [2]) | Fasting blood glucose level, Day 4 (diabetic mice [2]) | Fasting blood glucose level, Day 5 (diabetic mice [2]) | Fasting blood glucose level, Day 6 (diabetic mice [2]) | R.P. to Vildagliptin (Single Dose) (diabetic mice [3]) | AUC Δ from diabetic control (diabetic mice [3]; single oral dose 50 mg/kg) [mg·min/dL] | AUC of blood glucose in OGTT (X, mean) (diabetic mice [3]; single oral dose 50 mg/kg) | AUC % change from diabetic control (diabetic mice [3]; single oral dose 50 mg/kg) [%] | further results
high affinity towards the enzyme | 3.02 | 8.52 | 65.51 | 8.52 | N#Cc1cccc(NC(=O)CNC23CC4CC(CC(C4)C2)C3)c1 [Compound 110] | −30.05 | 15825 | 0.83 | 36830* mg · dL^−1 · min | 0.27 | 165.00 ± mg/dL | 107.20 ± mg/dL | 83.00 ± mg/dL | 105.60 ± mg/dL | 111.80 ± mg/dL | 121.40 mg/dL | 1.11 | 18801 | 32264* mg · dL^−1 · min | – | –
high DPP-4 inhibition | 7.41 | 8.13 | 61.82 | – | O=C(CNC12CC3CC(CC(C3)C1)C2)Nc1ccc(Cl)cc1 [Compound 112] | −16.99 | 8947 | 0.46 | 43708* mg · dL^−1 · min | 0.79 | 159.20 ± mg/dL | 114.40 ± mg/dL | 84.40 ± mg/dL | 115.40 ± mg/dL | 132.40 ± mg/dL | 122.00 ± mg/dL | 1.14 | 19295 | 31770* mg · dL^−1 · min | −37.78 | –
much better performance | 2.08 | 8.68 | 79.63 | – | O=C(CNC12CC3CC(CC(C3)C1)C2)Nc1cccc(O)c1 [Compound 111] | −9.820 | 6161 | 0.27 | 47494 mg·min/dL | 0.46 | 171.00 mg/dL | 122.40 ± mg/dL | 74.80 ± mg/dL | 153.00 ± mg/dL | 141.20 ± mg/dL | 180.20 mg/dL | 1.52 | 25735 | 25330* mg · dL^−1 · min | −50.39 | –

Structure (SMILES) | DPP-4 enzyme inhibition activity, in words (DPP-IV enzyme) | IC50 (DPP-IV enzyme; read-out: IC50) [nM] | pIC50 (DPP-IV enzyme; Table 6, read-out: IC50) | % Inhibition @ 100 nM (DPP-IV enzyme; compound at 100 nM) [%] | pIC50 (DPP-IV enzyme; [4]) | AUC % change from diabetic control (diabetic mice [1]) [%] | AUC Δ from diabetic control (diabetic mice [1]) [mg·min/dL] | Relative potency to vildagliptin (diabetic mice [1]) | AUC of blood glucose in OGTT (X, mean) (diabetic mice [1]) | R.P. to Vildagliptin (6 Days) (diabetic mice [1]) | Fasting blood glucose level, Day 1 (diabetic mice [2]) | Fasting blood glucose level, Day 2 (diabetic mice [2]) | Fasting blood glucose level, Day 3 (diabetic mice [2]) | Fasting blood glucose level, Day 4 (diabetic mice [2]) | Fasting blood glucose level, Day 5 (diabetic mice [2]) | Fasting blood glucose level, Day 6 (diabetic mice [2]) | R.P. to Vildagliptin (Single Dose) (diabetic mice [3]) | AUC Δ from diabetic control (diabetic mice [3]; single oral dose 50 mg/kg) [mg·min/dL] | AUC of blood glucose in OGTT (X, mean) (diabetic mice [3]; single oral dose 50 mg/kg) | AUC % change from diabetic control (diabetic mice [3]; single oral dose 50 mg/kg) [%] | further results
O=C(CNC12CC3CC(CC(C3)C1)C2)Nc1ccccn1 [Compound 119, 2-[(adamantan-1-yl)amino]-N-(pyridin-2-yl)acetamide] | best functionality in enzyme inhibition activity | 1.58 | 8.80 | – | 8.80 | −23.26 | 12250 | 0.64 | 40405* mg · dL^−1 · min | 1.26 | 149.60 ± mg/dL | 103.40 ± mg/dL | 104.80 ± mg/dL | 148.60 ± mg/dL | 107.60 ± mg/dL | 118.60 ± mg/dL | 1.417 | 23997 | 27068* mg · dL^−1 · min | −46.99 | DPP-4 enzyme inhibition activity, in words (DPP-IV enzyme; listed as GLP-119): high level of potency both in vitro and in vivo; inhibition at 0.1 µM (DPP-IV enzyme; compound at 100 nM): 58%
COC(=O)c1ccccc1NC(=O)CNC12CC3CC(CC(O)(C3)C1)C2 [Compound 16] | weakened the enzyme inhibition activities | – | – | 45.61 | – | −52.53 | 28183 | 1.45 | 24472* mg · dL^−1 · min | – | 174.00 mg/dL | 93.80 ± mg/dL | 158.40 ± mg/dL | 127.40 ± mg/dL | 171.00 ± mg/dL | 107.60 ± mg/dL | – | 20179 | 30886* mg · dL^−1 · min | −39.51 | Relative potency to vildagliptin (diabetic mice [3]; single oral dose 50 mg/kg, OGTT AUC): 1.19
